Measurements reported in patent publication US12178841B2, “Treatment of non-cystic fibrosis bronchiectasis” (priority 2021, dated 2024).
“Also recorded” adds a separate entry of the source. Where two headings read alike, the source gives them in different places.

What was measured:
[1] = ORBIT-3 and RESPIRE-2 trials; cited from earlier work
[2] = 1 MIU [33 mg CBA] via I-neb twice a day, up to 6 months, placebo 0.45% saline, cited from earlier work
[3] = PROMIS I Phase III clinical study: pulmonary exacerbations under inhaled CMS by I-neb vs placebo; format: in vivo, human
Pseudomonas aeruginosa = assay: PROMIS I: Pseudomonas aeruginosa density in sputum; format: in vivo, human; conditions: for Mean change from baseline in P. aeruginosa density (mITT): n = 176
Excerpt: Least square means in each treatment group, least square mean difference between treatments, their 95% CIs and associated p-values will be estimated.
Summary statistics of the P. aeruginosa density (log 10 CFU/g sputum) and change from baseline (Visit 2) will be provided by treatment group for each trial visit.
Results of the quantitative analysis for P. aeruginosa density will be presented as colony forming units (CFU) count per gram sputum.

[4] = set-up: species or system human; conditions: in vivo
Excerpt: Safety Variables • incidence of TEAEs; • absolute changes in percent-predicted FEV1 from baseline (Visit 2) to end of treatment (Visit 7); • number of subjects experiencing bronchospasm clinically or spirometrically determined following IMP administration at the start and end of treatment; • P. aeruginosa resistance to colistin sulphate as determined by in-vitro susceptibility testing on sputum from Screening/Randomisation (Visit 1/Visit 2) to Visits 3, 5 and end of treatment (Visit 7) as well as on sputum from Exacerbation Visits and clinic visits due to pneumonia; • emergence of other bacterial colonies and any developing resistance in sputum from Screening (Visit 1) to End of Treatment (Visit 7); • haematology, clinical chemistry and renal function tests; • physical examination and vital signs data; • 12-lead electrocardiogram

[5] = human, in vivo; cited from earlier work

Compound	primary endpoints [1]	time to first exacerbation (primary endpoint) vs placebo [2]	annual rate of exacerbations ([3]; CMS 1 MIU (33 mg CBA) by I-neb twice a day, 12 months, placebo 0.95)	severe exacerbations (requiring intravenous antibiotics and/or hospitalization), RR ([3]; CMS I-neb vs placebo, 95% CI 0.23-0.74, p=0.003)	time to first exacerbation, Hazard Ratio (HR) ([3]; CMS I-neb vs placebo, 95% CI 0.43-0.81, p=0.00074)	rate ratio (RR) of annual rate of exacerbations vs placebo ([3]; CMS I-neb vs placebo, 95% CI 0.46-0.82, p=0.00101)	Mean change from baseline in P. aeruginosa density (mITT) (Pseudomonas aeruginosa; Visit 3 (28 days))	Mean change from baseline in P. aeruginosa density (mITT) (Pseudomonas aeruginosa; Visit 5 (6 months))	Mean change from baseline in P. aeruginosa density (mITT) (Pseudomonas aeruginosa; Visit 6 (9 months))	Mean change from baseline in P. aeruginosa density (mITT) (Pseudomonas aeruginosa; Visit 7 (12 months/EOT), includes those who discontinued early)	P. aeruginosa density (in words) (Pseudomonas aeruginosa; patients on colistimethate sodium over the study)	broncospasm experienced clinically [4]	safety and tolerability (in words) [4]	time to first exacerbation (primary endpoint) vs placebo ([2]; listed as CMS)	adverse respiratory effects (cough, dyspnoea, bronchospasm, sore throat), people affected [5]
O=C(O)c1cn(C2CC2)c2cc(N3CCNCC3)c(F)cc2c1=O [ciprofloxacin]	failed to achieve their primary endpoints	–	–	–	–	–	–	–	–	–	–	–	–	–	–
colistin	–	not to be associated with a statistically significant improvement	–	–	–	–	–	–	–	–	–	–	–	–	–
colistimethate sodium	–	not statistically different	0.58 per patient per year	0.41	0.59	0.61	−1.59 log10(CFU/mL)	−1.39 log10(CFU/mL)	−1.56 log10(CFU/mL)	−0.86 log10(CFU/mL)	fell rapidly and remained suppressed; also recorded: falls rapidly and remains suppressed	0.6%	safe and well tolerated	failed to achieve its primary endpoint	at least 1 in 10
